Calls of active or inactive are those of the source. The calls are words filed in the database; no cut-off is given here.
Assays:
[1] = Compound was evaluated for inhibition of Van X at pH 7.0; No inhibition
[2] = system: Stenotrophomonas maltophilia; test: Tested for inhibitory activity against metallo-beta-lactamase L1 from Stenotrophomonas maltophilia at compound concentration up to […] at pH 7.0 using nitrocefin as substrate; No inhibition; format: functional
[3] = Compound was evaluated for inhibition of Van X at pH 7.0
[4] = Compound was evaluated for inhibition of Van X

Row | Structure (SMILES) | Ki [1] | Activity [2] | Ki [3] | Kis [4]
1 | CC(N)P(=O)(O)SCC(=O)O (configuration not stated) | Not Active | inactive | – | –
2 | CC(OP(=O)(O)C(C)N)C(=O)O (configuration not stated) | – | inactive | 400 µM | –
3 | CC(NP(=O)(O)C(C)N)C(=O)O (configuration not stated) | – | inactive | 36 µM | –
4 | CC(C[PH](=O)C(C)N)C(=O)O (configuration not stated) | – | – | – | 0.32 µM
